# Assay results: patent US6117849A, “S-(+)-adenosylmethionine and 3'-azido-2', 3'-dideoxy-nucleoside complexes as potent inhibitors of HIV-replication” (Symbio Herborn Group GmbH & Co., priority 1996, dated 2000)
# Where “and” joins values, the source holds several entries; their conditions need not be identical. Identical values can stand only once. Like-named read-outs stand apart in the source and are kept apart here.
# Columns and labels:
# [1] = biological target: T1, reverse transcriptase (RT) (HIV-1 M:B_HXB2R, UniProt P04585); assay type: biochemical; parameters: A2: RT in cord-blood lymphocyte cultures infected with HIV from an AIDS patient; settings: for Ki: RT
# Experimental: The second in-vitro test uses the enzymatic activity of RT, testing the kinetic and inhibitory action of the molecular complexes. The cloning of the RT in biologically active form made it possible to have large quantities of the RT enzyme available for these studies (RT from Sigma, lot # R 9376).
# The steady state reaction conditions for RT are chosen that approximate physiological conditions are met: pH 7.45 (37° C.), ionic strength of 150 mM, routinely a buffer was employed consisting of 50 mM TRIS-HCl, 100 mM KCl, 5 mM MgCl2, the addition of 10 μg/mL bovine serum albumin were included. […] The aforementioned precautions designed to avoid potential reduction of SAM in the presence of DTT are taken into accounts to preclude any distortions of the kinetic behavior of the RT enzyme in the presence of the various substrates e.g. as our molecular compounds. […] The enzyme concentrations of RT was approx. 20 nM, T-P (template-primer) […] and 25 μM of [^3 H]-dNTP (assay conditions are modified fro those of Mayunder et al., J. biol. Chem.,263, 15657, 1988). […] In case both parameters are effected to the same extent, then the inhibition is uncompetitive. In order to facilitate the difference between SAM kinetics and those for the molecular complexes we studied first SAM kinetics and subsequently the kinetics in the presence of the molecular complexes. […] Similar experiments have been carries out with dGTP.
# The enzyme was assayed with 50 nM primer sites on poly (rA): oligo (dT), and variable concentrations of [^3 H] dTP as substrates in a reaction mixture as described above at pH 7.5 (37° C.).
# [2] = biological target: T1, reverse transcriptase (RT); assay type: biochemical; parameters: A2: RT in cord-blood lymphocyte cultures infected with HIV from an AIDS patient; settings: no DTT
# [3] = tested on: T-lymphocyte cell cultures; experiment: in vitro; settings: for therapeutic index: in vitro, considering cytotoxicity
# Experimental: (§1) Viability of the T cells was determined by means of a tetrazolium salt (MTT) metabolic assay.--(see also: Schwartz, O., et al., AIDS Rcs. Hum. Retroviruses, 4 441-448, 1988).
# in vitro = settings: t-lymphocyte cultures
# Experimental: as §1
# [4] = biological target: T1, reverse transcriptase (RT); experiment: In vitro RT inhibition assay with F-dUP/F-dU or THF; assay type: biochemical; parameters: A2: RT in cord-blood lymphocyte cultures infected with HIV from an AIDS patient
# [5] = SAM and AZT levels in HIV-infected patients (plasma, CSF)
# [6] = in vivo; cited from earlier work
# [7] = AZT; cited from earlier work
# HIV-1 isolate of HIV IIB = experiment: HIV replication in de novo infected lymphocyte cultures, viral core protein p24 endpoint; assay type: cell-based, HIV-1 (in human peripheral blood lymphocytes)
# Experimental: For this purpose, SAM has been tested in a dose response titration ranging from 1000 μg/mL to 10 μg/mL final concentrations for the ability to inhibit HIV replication in de novo infected cells. Endpoint in this assay was the quantitative determination of the concentration of the viral core protein p24 as described by Mueller et al. (Mueller, Ch., Moritz, R., Prigge, G., Weitzel, D., Kunze, R., Kage, A., Koettgen, E., Fresenius Z. Anal. Chem.,330, 352-353, 1988). […] The toxicity testing of cellular proliferation was performed according to J. Mosmann (J. Immunological Methods, 65, 55-63, 1983). […] All experiments were carried out in triplicate cultures, including those for the various concentrations of the molecular complexes tested.--The lymphocytes were infected with a standardized preparation of HIV-1 isolate of HIV IIB. The cells were sedimented by low speed centrifugation, the sediment resuspended in the assay buffer (standard), and the resuspended cells were inoculated by adjusting to the following conditions: 100 ng of viral core protein p24/mL and 3200 pg HIV RNA/mL, respectively. Normally 3×10^8 lymphocytes were suspended in 1 mL if the HIV inoculum, and incubated at 37° C. for 60 minutes. After washing the cells twice with 50 mL of culture medium the cells were resuspended at a concentration of 3×10^6 cells/mL in culture medium which contains 10 units/mL of human recombinant interleukin-2. 100 μL of this cell suspension were added to 100 μL of the pre-diluted solution of the compounds to be tested, without adding any salt or protein. The entire assay was cultivated in humidified atmosphere in the presence of 5% CO2 at 37° C. After the 4th day of infection the viral replication was determined in the lymphocyte cultures. The end point of the titration was the determination of the viral core protein p24 in the supernatant of each of the lymphocyte cultures. 150 μL of the supernatant were removed and transferred to a vial containing 50 μL/well SDS at a final concentration of 0.08% (w/w). The concentration of the synthesized p24 by the HIV infected cells was determined according to Mueller et al., using recombinant p24 as a standard for calibration.
# [8] = biological target: T1, reverse transcriptase (RT); settings: read-out: inhibiting concentration, 50% of RT activity; tosylate-bis-sulfate salt, with DTT; cited from earlier work
# [9] = tested on: human peripheral blood lymphocytes; experiment: Cell toxicity by proliferation test in lymphocyte cultures
# Experimental: For this purpose, SAM has been tested in a dose response titration ranging from 1000 μg/mL to 10 μg/mL final concentrations for the ability to inhibit HIV replication in de novo infected cells. Endpoint in this assay was the quantitative determination of the concentration of the viral core protein p24 as described by Mueller et al. (Mueller, Ch., Moritz, R., Prigge, G., Weitzel, D., Kunze, R., Kage, A., Koettgen, E., Fresenius Z. Anal. Chem.,330, 352-353, 1988). […] The toxicity testing of cellular proliferation was performed according to J. Mosmann (J. Immunological Methods, 65, 55-63, 1983). […] All experiments were carried out in triplicate cultures, including those for the various concentrations of the molecular complexes tested.--The lymphocytes were infected with a standardized preparation of HIV-1 isolate of HIV IIB. The cells were sedimented by low speed centrifugation, the sediment resuspended in the assay buffer (standard), and the resuspended cells were inoculated by adjusting to the following conditions: 100 ng of viral core protein p24/mL and 3200 pg HIV RNA/mL, respectively. […] After the 4th day of infection the viral replication was determined in the lymphocyte cultures. […] The concentration of the synthesized p24 by the HIV infected cells was determined according to Mueller et al., using recombinant p24 as a standard for calibration.
# IL-β, IL-2 = experiment: Cytokine biosynthesis after stimulation of lymphocytes; assay type: cell-based; settings: after phytohemagglutination stimulation
# [10] = Intracellular metabolism to the triphosphate; assay type: in vitro ADME
# [11] = Stability / half-life in human plasma (chiral HPLC, fluorescence)
# Excerpt: In order to determine the stability of these complexes in physiological conditions, the half-life times of the compounds were estimated in human plasma after separation on a chiral column and using a HPLC apparatus applying, monitoring the fluorescence of both components at 310 nm (excitation at 278 nm) after complete separation of the two peaks.
# HIV = HIV replication in T-lymphocyte cell cultures (cytotoxic effect and p24 production); assay type: cell-based
# bone marrow stem cells = settings: vs AZT
# [12] = rapidly dried in vacuo, water-free
# [13] = tested on: mitochondrial DNA replication; settings: vs AZT
# [14] = no DTT, pH 7.45-7.5, 37° C., read-out: KM
# [15] = 1 h, complex: 400 mg SAM equivalent 250 mg AZT
# [16] = HIV replication, p24, standard conditions
# [17] = addition of human serum albumin
compound,measurement,setting,value
"3'-azido-2',3'-2'-fluorothymidine [F))/AZT (AZT (2']",Ki,[1]; no DTT,100 ± 10 nM
same,Km,[1]; [14],0.5 ± 0.01 µM
same,kcat,[2],0.0483 s⁻¹
same,therapeutic index,[3],7.000
"3'-azido-2',3'-dideoxyadennine [SAM/AZA]",Ki,[1]; no DTT,280 ± 20 nM
same,Km,[1]; [14],0.71 ± 0.02 µM
same,kcat,[2],0.0283 s⁻¹
same,therapeutic index,[3],4.500
"3'-azido-2',3'-dideoxyguanosine [SAM/AZG]",Ki,[1]; no DTT,240 ± 10 nM
same,Km,[1]; [14],0.7 ± 0.02 µM
same,kcat,[2],0.05 s⁻¹
same,therapeutic index,[3],5.700
"3'-azido-2',3'-dideoxyinosine [SAM/AZI]",Ki,[1]; no DTT,130 ± 15 nM
same,Km,[1]; read-out: KM,0.41 ± 0.03 µM
same,kcat,[2],0.035 s⁻¹
"3'-azido-2',3'-dideoxyuridine [SAM/AZU]",Km,[1]; read-out: KM,0.69 ± 0.015 µM
same,kcat,[2],0.035 s⁻¹
"C[S+](CC[C@H](N)C(=O)O)C[C@H]1O[C@@H](n2cnc3c(N)ncnc32)[C@H](O)[C@@H]1O (single isomer, unassigned) [SAM C1]",Km,[1],0.53 ± 0.02 µM
same,kcat,[1],0.317 s⁻¹ and 0.25 s⁻¹
same,selectivity ratio,in vitro,2.1
"c1ncc2c(n1)NCCN2 [5,6,7,8-tetrahydropteridine (THF), 5,6,7,8-tetrahydropteridine]",effect on inhibition of RT,[4],no significant inhibition of the RT
"Cc1cn([C@H]2C[C@H](N=[N+]=[N-])[C@@H](CO)O2)c(=O)[nH]c1=O [AZT, 3'-azido-2',3'-deoxythymidine]",Cmax,"[5]; human, plasma, 250 mg",2500 ng/mL
same,side effects upon prolonged administration,[6],peripheral neuropathological effects
same,toxicity at increased dose,[6],bone marrow toxicity
same,kcat,[1],approx. 1.5 sect^-1
same,plasma half-life,[7],1 h
same,inhibition of HIV replication,"HIV-1 isolate of HIV IIB; FIG. 1, p24",inhibited HIV replication in a dose dependent response
O=c1[nH]c(=O)n([C@H]2C[C@H](O)[C@@H](CO)O2)cc1F [F-dU],effect on inhibition of RT,[4],no influence on the inhibition of RT
"[3H]C12CNc3nc(N)[nH]c(=O)c3N1CN(c1ccc(C(=O)N[C@@H](CCC(=O)O)C(=O)O)cc1)C2 (stereo partly drawn) [N^5, N^10-methylene-6-[^3 H]-THF]",effect on inhibition of RT,[4],no significant inhibition of the RT
C[S+](CC[C@H](N)C(=O)O)C[C@H]1O[C@@H](n2cnc3c(N)ncnc32)[C@H](O)[C@@H]1O (stereo partly drawn) [SAM ts HSO4 H2 SO4],IC50,[8],250000 to 501000 nM
same,Km,[1],0.51 ± 0.02 µM
same,kcat,[1],0.333 s⁻¹ and 0.3 s⁻¹
same,selectivity ratio,in vitro,2.4
Nc1ccn([C@H]2CC[C@@H](CO)O2)c(=O)n1 [ddC],side effects upon prolonged administration,[6],peripheral neuropathological effects
"(+)-SAM-3'-azido-2',3'-dideoxythymidine complex [SAM/AZT]",increase of the cell toxicity,[9]; SAM-AZT complex compared with SAM alone,approx. 35%
same,cell toxicity with respect to AZT alone,[9]; vs AZT alone,considerable of reduction of cell toxicity
same,"cytokine biosynthesis (IL-β, IL-2)","IL-β, IL-2",enhanced significantly
same,accumulation / conversion to triphosphate,[10],"does not accumulate, but being readily converted to the triphosphate derivative"
same,AZT level (almost 50% of that in plasma),[5]; [15],0.25 µg/mL
same,SAM level,[5]; [15],600 ng/mL
same,pharmacokinetic behaviour,[5]; HIV patients,lower elimination rate for SAM
same,dose reduction of AZT,[5]; administered as complex with SAM,approx. 30%
same,increase of SAM and AZT levels in CSF and plasma,[5]; approved dose 250 mg AZT at 4 h intervals,25-30%
same,AZT level in plasma,[5]; complex: 400 mg SAM equivalent 250 mg AZT,0.543 µg/mL
same,half-life of SAM,[11]; from AZT-SAM complex,more than 10 h
same,"half-life of SAM, average",[11]; from AZT-SAM complex,12 h
same,half-life of AZT,"[11]; from the complex, depends on load",2 to 3 h
same,maximum inhibition,HIV; inhibition of the cytotoxic effect,100%
same,IC50,"HIV; p24 production, read-out: IC50, inhibition of p24 production",10 nM
same,toxicity for bone marrow stem cells,bone marrow stem cells,less toxic than AZT
same,hygroscopicity,[12],hygroscopic
same,50% cytotoxicity,"[3]; MTT, as mass concentration of complex",~15.5 µg/mL
same,CC50,"[3]; read-out: 50% cytotoxicity, MTT",250000 nM
same,toxicity/inhibition of mitochondrial DNA replication,[13],less toxic as well as inhibitory to mitochondrial DNA replication
same,"inhibitory constant Ki(1), at 50% inhibition",HIV-1 isolate of HIV IIB; [16],≈ 0.9 ng/mL
same,"inhibitory constant Ki(2), at 50% inhibition",HIV-1 isolate of HIV IIB; [16],≈ 12.5 μg/mL
same,"Ki (first, low)",HIV-1 isolate of HIV IIB; [17],0.0005 to 0.0008 µg/mL
same,"Ki (second, high)",HIV-1 isolate of HIV IIB; [17],~10 µg/mL
same,"Ki (first, low)",HIV-1 isolate of HIV IIB; ionic strength 0.075 M,0.0006 to 0.0008 µg/mL
same,"Ki (second, high)",HIV-1 isolate of HIV IIB; ionic strength 0.075 M,8 to 10 µg/mL
